Measured values taken from patent US8236851B2, “Microspherules containing a pleuromutilin derivative” (Novartis AG, priority 2001, dated 2012).
Structures can show the parent of a compound that is named as a salt.

Assays:
[1] = design: species or system piglets; settings: in vivo, po
Procedure: Bioavailability studies indicate that the microspherules pass through the stomach in an intact state and release the active ingredient only in the alkaline medium of the intestine. […] After 8-10 hours, the curve then falls off again and approaches zero. In case b), with the microspherules, the increase in active ingredient concentration begins after a delay of about 1-2 hours, reaches its maximum value after about 3-4 hours and, after about 10-12 hours, falls towards zero. […] This new method makes available a form of administration that is gentle on the stomach and that makes oral therapy even more efficient.

[2] = Stability of valnemulin in uncompressed feed; assay type: physicochemical

time after which the plasma concentration curve falls towards zero [1]: 8 to 10 h
time at which plasma active ingredient concentration reaches its maximum value [1]: 2 to 3 h
loss of valnemulin in uncompressed feed [2]: the same losses
SMILES: C=C[C@]1(C)C[C@@H](OC(=O)CSC(C)(C)CNC(=O)[C@H](N)C(C)C)[C@]2(C)[C@H](C)CC[C@]3(CCC(=O)[C@H]32)[C@@H](C)[C@@H]1O [free valnemulin hydrochloride, valnemulin]
